Source: patent US7084168B2, “Indoline derivatives” (Wyeth, priority 1999, dated 2006)
Values joined by “and” are separate entries in the source; they are usually repeats but may differ in a detail not shown here. Equal entries are not always repeated.

System: not given
Test: not given
Conditions: not given

Structure (SMILES)	melting point [°C]
COc1cccc(-c2ccc3c(c2)C(C)(C)C(=O)N3)c1 [Example 3, 5-(3-Methoxy-phenyl)-3,3-dimethyl-1,3-dihydro-indol-2-one]	157 to 158
N#Cc1cncc(-c2ccc3c(c2)C2(CCCCC2)C(=O)N3)c1 [Example 17, 5-(1′,2′-Dihydro-2′-oxospiro[cyclohexane-1,3′-[3H]indol]-5′-yl)-3-pyridine carbonitrile]	232 to 234
O=C1Nc2ccccc2C12CCCC(c1cccc(F)c1)C2 (centres unmarked) [Example 21, 5-(3-Fluorophenyl)spiro[cyclohexane-1,3′-[3H]indol]-2′(1′H)-one]	171 to 172
O=C1Nc2ccc(-c3cccc(O)c3)cc2C12CCCCC2 [Example 33, 5′-(3-Hydroxyphenyl)spiro[cyclohexane-1,3′-[3H]indol]-2′(1′H)-one]	213 to 216
CCOC(OCC)N1C(=O)C2(CCCCC2)c2cc(-c3cc(F)cc(C#N)c3)ccc21 [Example 50, 3-(1′-Diethoxymethyl-1′,2′-dihydro-2′-oxospiro[cyclohexane-1,3′-[3H]indol]-5′-yl)-5-fluorobenzonitrile]	146
O=C1Nc2ccc(-c3ccc(C=NO)c(F)c3)cc2C12CCCCC2 [Example 64, 2-fluoro-4-(1′,2′-Dihydro-2′-oxospiro[cyclohexane-1,3′-[3H]indol]-5′-yl) benzaldehyde oxime]	240 to 242
O=C1Nc2ccc(-c3cccc(C=NO)c3F)cc2C12CCCCC2 [Example 68, 2-fluoro-3-(1′,2′-Dihydro-2′-oxospiro[cyclohexane-1,3′-[3H]indol]-5′-yl) benzaldehyde oxime]	213 to 217
N#CCc1cccc(-c2ccc3c(c2)C2(CCCCC2)C(=O)N3)c1 [Example 81, 3-(1′,2′-Dihydro-2′-oxospiro[cyclohexane-1,3′-[3H]indol]-5′-yl)phenylacetonitrile]	190 to 193
CC1(C)C(=O)Nc2ccc(-c3cc(F)cc(C#N)c3)cc21 [Example 82, 3-(3,3-Dimethyl-2-oxo-2,3-dihydro-1H-indol-5-yl)-5-fluoro-benzonitrile]	231.2 to 232.3

System: rat uterine decidualization
Test: Rat decidualization assay
Type: in vivo
Conditions: decrease in EC50 progesterone induced decidual response in rat, p.o.; individual studies
Experimental: 1. Rat Decidualization Assay
The materials and methods used in tins assay are as follows.
The animals are treated once daily for seven days.
Uteri are removed and trimmed of fat.
Decidual response: [(D-C)/C]×100%

Structure (SMILES)	IC50
CC#C[C@]1(O)CC[C@H]2[C@@H]3CCC4=CC(=O)CCC4=C3[C@@H](c3ccc(N(C)C)cc3)C[C@@]21C [RU486]	0.21 mg/kg, p.o. and 0.14 mg/kg, p.o.

Same assay, conditions: rat decidual response, s.c.; average of dose-response curves

Structure (SMILES)	Estimated average EC50
C#C[C@]1(O)CC[C@H]2[C@@H]3CCC4=CC(=O)CC[C@@H]4[C@H]3C(=C)C[C@@]21CC [3-Ketodesogestrel]	0.10 mg/kg, s.c.
